Experimental data published in US6200984A, “Naphtho-imidazo pyridine derivatives useful in treating central nervous system disorders” (Ortho-McNeil Pharmaceutical, Inc., priority 1998, dated 2001).
Like-named read-outs stand apart in the source and are kept apart here.

Assays:
[1] = biological target: benzodiazepine site of the GABA-A receptor; assay: Benzodiazepine Receptor Binding Assay (inhibition of 3H-flunitrazepam binding); settings: 3H-flunitrazepam ca. 3 nM
[2] = tested on: behavior suppressed by punishment (rat conflict); assay: Suppression of Anxiety in the Adult Male Rat (rat conflict, Vogel); assay type: in vivo; settings: po
Protocol: Assay to Measure the Suppression of Anxiety in the Adult Male Rat
Male rats were deprived of water for 48 hours and were deprived of food for 24 hours prior to testing. After the first 24 hours of water deprivation, they were placed in the conflict chamber for a training period; wherein, they were allowed 200 unpunished licks from a bottle containing tap water. The experiment was run the next day. At the expected time of peak activity, the animals were placed in the chamber and allowed access to tap water. […] Their first lick initiates a 3-min test session. Subsequently,every 20th lick was punished by a 0.2-s shock delivered via the stainless-steel drinking-tube. […] The Wilcoxon rank-sum test (Mann-WhitneyU-test) was used to test for an increase (p<0.05, 1-tailed) in the median number of shocks in drug-treated groups, compared to a concurrently run vehicle-treated group. The biological assay is considered to be valid if the effects of a known anxiolytic (positive control) are detected, within the same experiment.

[3] = tested on: Metrazol-Induced Convulsions; assay: Suppression of Metrazol-Induced Convulsions in Adult Male Mice; assay type: in vivo, mice (male CD1); settings: Mus musculus, ip, read-out: anti-metrazol ED50
Protocol: Assay to Determine the Suppression of Metrazol-Induced Convulsions in Adult Male Mice
Male CD1 mice, were fasted at least 16 hours, were divided into equal groups and test compounds or vehicle were administered parenterally. Water was not withheld except during the period of observations. […] Metrazol was dissolved in 0.9% sodium chloride solution, and its dose volume was 10 ml/kg. Animals were housed individually for observation of clonic convulsions, tonic convulsions and death for a period of 30 min. […] The biological assay was considered to be valid if the effects of a known anticonvulsant (positive control) were detected, within the same experiment. Activity was reported as percent reduction of clonic convulsions from the vehicle group.

[4] = minimum effective dose, Wilcoxon rank-sum test p<0.05, read-out: rat conflict MED
[5] = mice, s.c. CD90 metrazol, clonic convulsions
[6] = Rattus norvegicus, read-out: rat conflict MED, po, minimum effective dose, Wilcoxon rank-sum test p<0.05

SMILES: CCN1C2=C(C(=O)Nc3ccccc3F)C(=O)CCN2c2cc3ccccc3cc21 [Example 3, 5-ethyl-3-oxo-1,2,3,5-tetrahydronaphtho[2',3': 4,5]imidazo[1,2-a]pyridine-4-carboxylic acid (2-fluorophenyl)amide]
- IC50 [1]: 0.94 nM
- minimal effective dose [2, 4]: 10 mg/kg
- ED50 [3, 5]: < 1 mg/kg

SMILES: CCN1C2=C(C(=O)Nc3ccccc3F)C(=O)CCN2c2ccc3ccccc3c21 [Example 21]
- IC50 [1]: 16.5 nM
- minimal effective dose [2, 4]: > 10 mg/kg
- ED50 [3, 5]: > 1 mg/kg

SMILES: CCOCCN1C2=C(C(=O)Nc3c(F)cccc3F)C(=O)CCN2c2ccc3ccccc3c21 [Example 25]
- IC50 [1]: 3.72 nM
- minimal effective dose [2, 4]: > 3 mg/kg

SMILES: CCOCN1C2=C(C(=O)Nc3c(F)cccc3F)C(=O)CCN2c2ccc3ccccc3c21 [Example 26]
- IC50 [1]: 10.3 nM
- minimal effective dose [2, 6]: > 10 mg/kg

SMILES: O=C1CCN2C(=C1C(=O)Nc1ccccc1F)N(CC1CC1)c1cc3ccccc3cc12 [Example 14]
- IC50 [1]: 0.57 nM
- minimal effective dose [2, 6]: > 10 mg/kg
- ED50 [3, 5]: < 1 mg/kg

SMILES: CCN1C2=C(C(=O)Nc3cccs3)C(=O)CCN2c2cc3ccccc3cc21 [Example 16]
- IC50 [1]: 0.7 nM
- minimal effective dose [2, 4]: > 10 mg/kg
- ED50 [3, 5]: < 1 mg/kg

SMILES: CCN1C2=C(C(=O)Nc3nccs3)C(=O)CCN2c2cc3ccccc3cc21 [Example 18]
- IC50 [1]: 11.1 nM
- minimal effective dose [2, 6]: > 10 mg/kg
- ED50 [3, 5]: < 1 mg/kg

SMILES: CCOCN1C2=C(C(=O)Nc3ccccc3F)C(=O)CCN2c2cc3ccccc3cc21 [Example 15]
- IC50 [1]: 2.18 nM
- minimal effective dose [2, 6]: > 10 mg/kg
- ED50 [3, 5]: < 1 mg/kg

SMILES: CCN1C2=C(C(=O)Nc3c(F)cccc3F)C(=O)CCN2c2cc3ccccc3cc21 [Example 4, 5-ethyl-3-oxo-1,2,3,5-tetrahydronaphtho[2',3': 4,5]imidazo[1,2-a]pyridine-4-carboxylic acid (2,6-difluorophenyl)amide]
- IC50 [1]: 6.87 nM
- minimal effective dose [2, 4]: > 10 mg/kg
- ED50 [3, 5]: > 1 mg/kg

SMILES: O=C1CCN2C(=C1C(=O)Nc1ccccc1F)Nc1c2ccc2ccccc12 [Example 13, 3-Oxo-1,2,3,5-tetrahydronaphtho[1',2': 4,5]imidazo[1,2-a]pyridine-4-carboxylic acid (2-fluorophenylamide)]
- IC50 [1]: 154 nM
- minimal effective dose [2, 4]: > 10 mg/kg
- ED50 [3, 5]: > 1 mg/kg

SMILES: O=C1CCN2C(=C1C(=O)Nc1c(F)cccc1F)Nc1cc3ccccc3cc12 [Example 2, 3-oxo-1,2,3,5-tetrahydronaphtho[2',3': 4,5]imidazo[1,2-a]pyridine-4-carboxylic acid (2,6-difluorophenyl)amide]
- IC50 [1]: 3.95 nM
- minimal effective dose [2, 6]: > 10 mg/kg
- ED50 [3, 5]: 1 mg/kg

SMILES: COCCN1C2=C(C(=O)Nc3ccccc3F)C(=O)CCN2c2c1ccc1ccccc21 [Example 12, 5-(2-Methoxyethyl)-3-oxo-1,2,3,5-tetrahydronaphtho[2',1': 4,5]-imidazo[1,2-a]pyridine-4-carboxylic acid (2-fluorophenylamide)]
- IC50 [1]: 58 nM
- minimal effective dose [2, 4]: > 10 mg/kg
- ED50 [3, 5]: > 1 mg/kg

SMILES: COCCN1C2=C(C(=O)Nc3ccccc3F)C(=O)CCN2c2cc3ccccc3cc21 [Example 5, 5-(2-methoxyethyl)-3-oxo-1,2,3,5-tetrahydronaphthol[2',3': 4,5]-imidazo[1,2-a]pyridine-4-carboxylic acid (2-fluorophenyl)amide]
- IC50 [1]: 0.37 nM
- minimal effective dose [2, 4]: 10 mg/kg
- ED50 [3, 5]: < 1 mg/kg

SMILES: COCCN1C2=C(C(=O)Nc3nccs3)C(=O)CCN2c2cc3ccccc3cc21 [Example 19]
- IC50 [1]: 3.37 nM
- minimal effective dose [2, 6]: > 10 mg/kg
- ED50 [3, 5]: < 1 mg/kg

SMILES: CNCCN1C2=C(C(=O)Nc3c(F)cccc3F)C(=O)CCN2c2cc3ccccc3cc21.Cl [Example 9, 5-[2-(methylamino)ethyl)-3-oxo-1,2,3,5-tetrahydronaphtho[2',3': 4,5]imidazo[1,2-a]pyridine-4-carboxylic acid (2,6-difluorophenyl)amide hydrochloride]
- IC50 [1]: 75 nM
- minimal effective dose [2, 4]: > 10 mg/kg
- ED50 [3, 5]: > 1 mg/kg

SMILES: COCCN1C2=C(C(=O)Nc3ccccc3F)C(=O)CCN2c2ccc3ccccc3c21 [Example 22]
- IC50 [1]: 31.8 nM
- minimal effective dose [2, 6]: > 10 mg/kg
- ED50 [3, 5]: > 1 mg/kg

SMILES: O=C1CCN2C(=C1C(=O)Nc1nccs1)Nc1cc3ccccc3cc12 [Example 17]
- IC50 [1]: 360 nM
- ED50 [3, 5]: > 1 mg/kg

SMILES: COCCN1C2=C(C(=O)Nc3c(F)cccc3F)C(=O)CCN2c2ccc3ccccc3c21 [Example 24]
- IC50 [1]: 0.29 nM
- minimal effective dose [2, 4]: > 3 mg/kg
- ED50 [3, 5]: 1 mg/kg

SMILES: CCOCN1C2=C(C(=O)Nc3c(F)cccc3F)C(=O)CCN2c2cc3ccccc3cc21 [Example 10, 5-Ethoxymethyl-3-oxo-1,2,3,5-tetrahydronaphtho[2',3': 4,5]-imidazo[1,2-a]pyridine-4-carboxylic acid (2,6-difluorophenyl)amide]
- IC50 [1]: 13 nM
- minimal effective dose [2, 4]: > 10 mg/kg
- ED50 [3, 5]: > 1 mg/kg

SMILES: O=C1CCN2C(=C1C(=O)Nc1ccccc1F)Nc1ccc3ccccc3c12 [Example 11, 3-Oxo-1,2,3,5-tetrahydronaphtho[2',1': 4,5]imidazo[1,2-a]-pyridine-4-carboxylic acid (2-fluorophenylamide)]
- IC50 [1]: > 1000 nM
- minimal effective dose [2, 4]: > 10 mg/kg
- ED50 [3, 5]: > 1 mg/kg

SMILES: CN(CCN1C2=C(C(=O)Nc3c(F)cccc3F)C(=O)CCN2c2cc3ccccc3cc21)Cc1ccccc1 [Example 7, 5-[2-(benzylmethylamino)ethyl)-3-oxo-1,2,3,5-tetrahydronaphtho[2',3': 4,5]imidazo[1,2-a]pyridine-4-carboxylic acid (2.6-difluorophenyl)amide]
- IC50 [1]: 58 nM
- minimal effective dose [2, 4]: > 10 mg/kg
- ED50 [3, 5]: > 1 mg/kg

SMILES: O=C1CCN2C(=C1C(=O)Nc1ccccc1F)Nc1cc3ccccc3cc12 [Example 1, 3-oxo-1,2,3,5-tetrahydronaphtho[2',3': 4,5]imidazo[1,2-a]pyridine-4-carboxylic acid (2-fluorophenyl)amide]
- IC50 [1]: 17 nM
- minimal effective dose [2, 4]: > 10 mg/kg
- ED50 [3]: 1 mg/kg

SMILES: O=C1CCN2C(=C1C(=O)Nc1c(F)cccc1F)Nc1c2ccc2ccccc12 [Example 20]
- IC50 [1]: 2.73 nM
- minimal effective dose [2, 4]: > 10 mg/kg
- ED50 [3, 5]: < 1 mg/kg

SMILES: O=C1CCN2C(=C1C(=O)Nc1c(F)cccc1F)Nc1c2ccc2ccccc12 [Example 23]
- IC50 [1]: 17.9 nM
- minimal effective dose [2, 6]: 10 mg/kg

SMILES: CN(CCN1C2=C(C(=O)Nc3ccccc3F)C(=O)CCN2c2cc3ccccc3cc21)Cc1ccccc1 [Example 6, 5-[2-(benzylmethylamino)ethyl)-3-oxo-1,2,3,5-tetrahydronaphtho[2',3': 4,5]imidazo[1,2-a]pyridine-4-carboxylic acid (2-fluorophenyl)amide]
- IC50 [1]: 8.02 nM
- minimal effective dose [2, 6]: > 10 mg/kg
- ED50 [3, 5]: > 1 mg/kg

SMILES: CNCCN1C2=C(C(=O)Nc3ccccc3F)C(=O)CCN2c2cc3ccccc3cc21.Cl [Example 8, 5-[2-(methylamino)ethyl)-3-oxo-1,2,3,5-tetrahydronaphtho[2',3': 4,5]imidazo[1,2-a]pyridine-4-carboxylic acid (2-fluorophenyl)amide hydrochloride]
- IC50 [1]: 7.98 nM
- minimal effective dose [2, 6]: > 10 mg/kg
- ED50 [3, 5]: > 1 mg/kg
